Structures can show the parent of a compound that is named as a salt. Where two headings read alike, the source gives them in different places.
Columns and labels:
[1] = tested on: LTB4 production in mouse blood; assay: Murine Ex Vivo LTB4 Inhibition, calcium ionophore stimulated mouse blood after oral gavage; format: in vivo
Description: Leukotriene A4 hydrolass inhibitor compounds of the present invention were diluted to a predetermined concentration in phosphate buffered saline containing 2% DMSO and 1% Tween 80. The compounds were administered by oral gavage to adult male outbred mice weighing approximately 20-30 gm at a dose of 10 mg/kg body weight. (Compounds given at a dose of 50 mg/kg body weight are designtated in following Table by the symbol, *.) Sixty (60) minutes after administration of an LTA4 inhibitor compound of the invention, blood was collected (into heparin-containing tubes) from the retroorbital sinus. […] The mixture was incubated for 10 minutes at 37° C. in a humidified incubator. The reaction was terminated by centrifugation (833 g, 10 minutes at 4° C.). Supernatants were analyzed for LTB4 and thromboxane by commercially available enzyme-linked immunoassays [Caymen Chemical Co., Ann Arbor, Mich.] in accordance with the manufacturer's instructions. The percent inhibition was determined by comparison to animals treated identically except that the solution admininstered by oral gavage was devoid of inhibitor compound.

[2] = molecular target: T1, recombinant human LTA4 hydrolase (Homo sapiens, UniProt P09960); assay: Recombinant Human LTA4 Hydrolase Assay for LTA4 Hydrolase Inhibitor Activity (LTB4 by enzyme-linked immunoassay); format: biochemical; settings: for IC50: read-out: Recombinant Human LTA4 Hydrolase Assay IC50 LTA4H
T1 construct: made in house; host or cells: Spodoptera frugiperda Sf-9 cells, baculovirus (AcNPV) expression vector
T1 sequence (P09960 1-611): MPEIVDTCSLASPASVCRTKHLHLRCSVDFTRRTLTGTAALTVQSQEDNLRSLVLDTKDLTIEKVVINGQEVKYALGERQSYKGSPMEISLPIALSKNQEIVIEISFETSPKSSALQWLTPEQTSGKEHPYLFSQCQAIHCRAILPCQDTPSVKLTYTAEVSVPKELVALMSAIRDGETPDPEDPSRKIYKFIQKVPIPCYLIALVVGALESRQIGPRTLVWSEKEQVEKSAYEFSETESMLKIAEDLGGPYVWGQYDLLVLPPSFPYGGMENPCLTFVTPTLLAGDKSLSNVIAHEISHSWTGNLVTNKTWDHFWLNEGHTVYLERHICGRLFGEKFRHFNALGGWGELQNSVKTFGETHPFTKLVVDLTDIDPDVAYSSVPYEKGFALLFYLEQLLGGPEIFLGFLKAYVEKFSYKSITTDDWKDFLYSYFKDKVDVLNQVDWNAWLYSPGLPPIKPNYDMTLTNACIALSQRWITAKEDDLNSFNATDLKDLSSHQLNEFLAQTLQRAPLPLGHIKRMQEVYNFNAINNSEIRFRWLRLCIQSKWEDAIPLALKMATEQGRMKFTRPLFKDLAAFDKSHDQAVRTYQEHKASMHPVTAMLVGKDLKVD
Description: Compounds of the present invention were tested for LTA4 hydrolase inhibitor activity against recombinant human LTA4 hydrolase (rhLTA4 H). […] Briefly, LTA4 hydrolase encoding DNA was amplified by polymerase chain reaction using a pair of oligonucleotide primers based on the nucleotide sequence from the 5'-end, and the complement of the 3'-end, of the coding region of the LTA4 hydrolase gene, the nucleotide sequence of which gene is known. […] A λgtll human placental cDNA library (Clonetech, Palo Alto, Calif.) provided the nucleic acid template.
One or more predetermined amounts of a compound of the invention were incubated in assay buffer (0.1M potassium phosphate, 5 mg/ml fatty acid free BSA, 10% DMSO, pH 7.4) for 10 minutes at room temperature with 250 ng of recombinant hLT4 H to allow binding, if any, between the enzyme and inhibitor. The stock enzyme solution was 1 mg/ml LTA4 hydrolase, 50 mM Tris, pH 8.0, 150 mM NaCl, 2.5 mM beta-mercaptoethanol, 50% glycerol. […] LTA4 (i.e., substrate) was prepared from the methyl ester of LTA4 (Biomol, Inc., Plymouth Meeting, Pa.) by treating the methyl ester with 30 molar equivalents of LiOH at room temperature for 18 hours. The LTA4 substrate in its free acid form was kept frozen at -80° C. until needed. […] Each reaction was carried out at room temperature for 10 minutes. The reaction was stopped by diluting 25 μl of the reaction mixture with 500 μl of the assay buffer without DMSO. LTB4 was quantified in the diluted sample by a commercially available enzyme-linked immunoassay [Caymen Chemical Co., Ann Arbor, Mich.] using the method recommended in the manufacturer's instructions and compared to the amount of LTB4 produced in a negative control (i.e., essentially identical conditions except without addition of an inhibitor compound). The IC50 was routinely calculated from the data produced.

[3] = tested on: LTB4 production in human blood; assay: Inhibition of Calcium Ionophore-Induced LTB4 Production in Human Blood (HWB); format: cell-based; settings: Homo sapiens, read-out: Inhibition of Calcium Ionophore-Induced LTB4 Production in Human Blood IC50 HWB
[4] = human whole blood, A23187 20 mcg/ml

SMILES	IC50 [2]	IC50 [3, 4]	Murine Ex Vivo LTB4 Inhibition % I LTB4 at 1 hour after administration of 10 mg/kg ([1]; oral gavage, 10 mg/kg, 1 hour)	also measured
CC1CCCC(C)N1CCOc1ccc(Cc2ccccc2)cc1 (centres unmarked) [Example 402]	–	–	58%	–
c1ccc(Cc2ccc(OCCN3CCCC3)nc2)cc1 [Example 112]	7 nM	–	–	Murine Ex Vivo LTB4 Inhibition % I LTB4 at 1 hour after administration of 50 mg/kg (*) ([1]; in vivo, po): 82%
CCOC(=O)C1CCN(CCOc2ccc(Cc3ccccc3)s2)CC1 [Example 370]	–	680 nM	96%	–
c1cncc(Cc2ccc(OCCN3CCCC3)cc2)c1 [Example 125]	87 nM	–	46%	–
CN(CCCOc1ccc(Cc2ccc(F)cc2)cc1)CCC(=O)O [Example 336]	31 nM	187 nM	99%	–
c1ccc(Oc2ccc(OCCN3CCCC3)cc2)cc1 [Example 44, 1-[2-(4-phenoxyphenoxy)ethyl]pyrrolidine]	30 nM	–	25%	–
c1csc(Cc2ccc(OCCN3CCCC3)cc2)n1 [Example 121]	69 nM	–	48%	–
COC(=O)CCN(C)CCCOc1ccc(Cc2ccccc2)s1 [Example 375]	–	240 nM	67%	–
c1ccc(Cc2ccc(OCCN3CCCC3)cc2)cc1 [Example 45]	26 nM	–	35%	IC50 [3]: 116 nM
NC(=O)N1CCN(CCOc2ccc(Cc3ccccc3)cc2)CC1 [Example 459]	1110 nM	2400 nM	44%	–
c1nc(Cc2ccc(OCCN3CCCC3)cc2)cs1 [Example 49]	190 nM	–	46%	–
[O-][n+]1ccc2c(c1)ncn2CCOc1ccc(Cc2ccccc2)cc1 [Example 365]	–	–	72%	–
NC(=O)C1CCN(CCOc2ccc(Cc3ccccc3)cc2)CC1 [Example 242]	132 nM	608 nM	95%	–
FC(F)(c1ccccc1)c1ccc(OCCN2CCCC2)cc1 [Example 67]	11 nM	–	0%	–
c1ncc(Cc2ccc(OCCN3CCCC3)cc2)s1 [Example 122]	77 nM	–	57%	–
COC(=O)CCN(C)CCCOc1ccc(Cc2ccsc2)cc1 [Example 330]	–	90 nM	95%	–
CCOC(=O)C1CCN(CCOc2ccc(Cc3ccccc3)cc2)CC1 [Example 245]	–	147 nM	97%	–
c1ccc(Cc2ccc(OCCn3cnc4ncncc43)cc2)cc1 [Example 357A]	–	–	57%	–
CCOC(=O)CNCCCOc1ccc(Cc2ccccc2)cc1 [Example 264]	3000 nM	1100 nM	–	–
CC(=O)NC1CCN(CCOc2ccc(Cc3ccccc3)cc2)C1 (centres unmarked) [Example 227]	210 nM	420 nM	–	–
Clc1cccc(COc2ccc(OCCN3CCCC3)cc2)c1 [Example 206]	–	1650 nM	0%	–
O=C(O)C1CCN(CCOc2ccc(Cc3ccccc3)cc2)CC1 [Example 429]	–	288 nM	80%	–
COC(=O)[C@@H]1CCCN1CCOc1ccc(Cc2ccccc2)cc1 [Example 225, Methyl 1-[2-[4-(phenylmethyl)phenoxy]ethyl]-2S-pyrrolidine-2-carboxylate, monohydrochloride, hydrate]	450 nM	1860 nM	–	–
CC(C)(C)OC(=O)CCNCCCOc1ccc(Cc2ccccc2)cc1 [Example 268]	–	7980 nM	–	inhibition at 3 µM [2]: 53%
NC(=O)C1CCCN(CCCOc2ccc(Oc3ccccc3)cc2)C1 (centres unmarked) [Example 250]	4900 nM	1770 nM	–	–
COC(=O)C1CC2CCC(C1)N2CC1Cc2cc(Cc3ccccc3)ccc2O1 (centres unmarked) [Example 283]	–	–	90%	IC50 [3]: 90 nM
c1ccc(Cc2cnc(OCCN3CCCC3)s2)cc1 [Example 76]	2900 nM	3500 nM	–	–
Clc1ccc(Cc2ccc(OCCN3CCCC3)cc2)cc1 [Example 140]	60 nM	1010 nM	–	–
O=C1CC2CCCC(C1)N2CCOc1ccc(Cc2ccccc2)cc1 [Example 303]	97 nM	–	–	IC50 [3]: 1650 nM
COc1cccc(Cc2ccc(OCCN3CCCC3)cc2)c1 [Example 127]	840 nM	2480 nM	–	–

Further lines, with some results ahead:

IC50 [2]	IC50 [3, 4]	SMILES	Murine Ex Vivo LTB4 Inhibition % I LTB4 at 1 hour after administration of 10 mg/kg ([1]; oral gavage, 10 mg/kg, 1 hour)	also measured
–	590 nM	c1ccc(Cc2ccc3c(c2)CC(Cn2ccc4ncnc-4c2)O3)cc1 (centres unmarked) [Example 358C]	13%	–
5070 nM	3350 nM	Nc1ccc2c(c1)ncn2CCOc1ccc(Cc2ccccc2)cc1 [Example 362A]	28%	–
73 nM	260 nM	Cn1c(=O)c2c(ncn2CCOc2ccc(Cc3ccccc3)cc2)n(C)c1=O [Example 353]	0%	–
390 nM	146 nM	COC(=O)CC1CCN(CCOc2ccc(Cc3ccccc3)cc2)C1 (centres unmarked) [Example 275]	75%	–
15 nM	–	COC(=O)CC1CC2CC1CN2CCOc1ccc(Cc2ccccc2)cc1 (centres unmarked) [Example 304]	–	Murine Ex Vivo LTB4 Inhibition % I LTB4 at 1 hour after administration of 10 mg/kg ([1]; in vivo, po): 80%
–	330 nM	c1ccc(Cc2ccc(OCCn3cnc4cnccc43)cc2)cc1 [Example 340B]	64%	–
220 nM	586 nM	COC(=O)CCNCCOc1ccc(Cc2ccccc2)cc1 [Example 324]	–	–
130 nM	1730 nM	CC1(CN2CCCC2)Cc2cc(Cc3ccccc3)ccc2O1 (centres unmarked) [Example 285]	–	–
37 nM	120 nM	O=C(COc1ccc(Cc2ccccc2)cc1)N1CCCCC1 [Example 387, 1-(1-piperidinyl)-2-[4-(phenylmethyl)phenoxy]ethanone]	–	–
140 nM	280 nM	O=C(O)CCNCCCOc1ccc(Cc2ccccc2)cc1 [Example 431]	–	–
–	640 nM	c1ccc(Cc2ccc3c(c2)CC(Cn2cnc4cnccc42)O3)cc1 (centres unmarked) [Example 358B]	33%	–
240 nM	–	c1ccc(Cc2ccc(OCCN3CCC(c4nnn[nH]4)CC3)cc2)cc1 [Example 450]	91%	–
16 nM	360 nM	NC(=O)C1CCN(CCOc2ccc(Cc3ccccc3)cc2)C1 (centres unmarked) [Example 425]	–	–
11000 nM	7980 nM	CCOC(=O)CC(NCCOc1ccc(Cc2ccccc2)cc1)c1cccnc1 (centres unmarked) [Example 271]	–	–

— US5585492A, “LTA4 Hydrolase inhibitors” (priority 1994, dated 1996)
